Experimental data published in patent US6159700A, “Method of finding agonist and antagonist to human and rat GPR14” (SmithKline Beecham Corporation, priority 1999, dated 2000).
Changes are numbered by the printed parent chain. Blank lines part the entries; values can stand above or below the molecule they belong to. Bridge positions count the residues as written; N and C are the ends. Peptide text beside a SMILES is read from it.

How the values were obtained:
[1] = target: T1, rat GPR14 receptor (Rattus norvegicus, UniProt P49684); test: Binding to rat GPR14 receptor; conditions: compared with Human GPR14
T1 sequence (P49684 1-386): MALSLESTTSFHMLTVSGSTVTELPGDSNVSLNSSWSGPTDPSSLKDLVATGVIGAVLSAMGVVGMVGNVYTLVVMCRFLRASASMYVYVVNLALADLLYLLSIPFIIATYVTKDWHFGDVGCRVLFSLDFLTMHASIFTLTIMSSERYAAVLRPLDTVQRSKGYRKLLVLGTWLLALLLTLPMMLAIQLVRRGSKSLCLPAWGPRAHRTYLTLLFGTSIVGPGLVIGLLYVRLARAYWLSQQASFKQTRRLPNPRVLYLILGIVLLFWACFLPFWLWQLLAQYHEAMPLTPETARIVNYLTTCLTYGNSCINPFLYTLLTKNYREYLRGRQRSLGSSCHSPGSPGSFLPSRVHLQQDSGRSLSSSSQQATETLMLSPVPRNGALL
From the text: Ligand binding assays provide a direct method for ascertaining receptor pharmacology and are adaptable to a high throughput format. The purified ligand for a receptor is radiolabeled to high specific activity (50-2000 Ci/mmol) for binding studies. […] Assay conditions for buffers, ions, pH and other modulators such as nucleotides are optimized to establish a workable signal to noise ratio for both membrane and whole cell receptor sources. For these assays, specific receptor binding is defined as total associated radioactivity minus the radioactivity measured in the presence of an excess of unlabeled competing ligand. Where possible, more than one competing ligand is used to define residual nonspecific binding.

[2] = Vasoconstrictor potency; conditions: mammalian
[3] = test system: intact primate; test: Effects in the intact primate; type: in vivo
[4] = target: T2, Human GPR14 (human); test: cell-based or functional assay
T2 chain: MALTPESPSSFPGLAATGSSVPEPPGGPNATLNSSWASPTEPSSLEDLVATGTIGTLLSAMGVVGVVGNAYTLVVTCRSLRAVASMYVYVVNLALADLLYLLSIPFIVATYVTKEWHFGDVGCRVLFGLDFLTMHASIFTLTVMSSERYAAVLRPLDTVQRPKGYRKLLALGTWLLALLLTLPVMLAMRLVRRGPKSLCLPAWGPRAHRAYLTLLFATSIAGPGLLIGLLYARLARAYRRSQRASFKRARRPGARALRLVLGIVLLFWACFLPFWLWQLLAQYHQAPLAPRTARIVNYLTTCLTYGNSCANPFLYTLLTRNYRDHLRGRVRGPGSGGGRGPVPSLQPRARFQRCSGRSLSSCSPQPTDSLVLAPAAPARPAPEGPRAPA

[5] = target: T3, Rat GPR14 receptor (rat); test: cell-based or functional assay
T3 chain: T1 sequence (P49684 1-386) with F315L

Molecule: CC(C)[C@H](NC(=O)[C@@H]1CSSC[C@H](NC(=O)[C@H](CC(=O)O)NC(=O)[C@@H]2CCCN2C(=O)[C@@H](NC(=O)[C@@H](N)CCC(=O)O)[C@@H](C)O)C(=O)N[C@@H](Cc2ccccc2)C(=O)N[C@@H](Cc2c[nH]c3ccccc23)C(=O)N[C@@H](CCCCN)C(=O)N[C@@H](Cc2ccc(O)cc2)C(=O)N1)C(=O)O [human urotensin II]
binding to rat GPR14 receptor [1]: binds equally well to rat GPR14 receptor
vasoconstrictor potency [2]: most potent mammalian vasoconstrictor identified to date
cardiovascular effects in vivo [3]: induces systemic vasoconstriction, myocardial contractile dysfunction and, ultimately, lethal arrhythmias

B1: Fish urotensin II (peptide)
peptide: AGTADCFWKYCV
EC50 of calcium mobilization (FLIPR) [4]: 0.5 nM
EC50 of calcium mobilization (FLIPR) [5]: 0.8 nM

Results, then the molecule that gave them:

binding to rat GPR14 receptor [1]: binds equally well to rat GPR14 receptor
Molecule: CC(C)[C@H](NC(=O)[C@@H]1CSSC[C@H](NC(=O)[C@H](CC(=O)O)NC(=O)[C@H](C)NC(=O)[C@@H](NC(=O)CNC(=O)[C@H](C)N)[C@@H](C)O)C(=O)N[C@@H](Cc2ccccc2)C(=O)N[C@@H](Cc2c[nH]c3ccccc23)C(=O)N[C@@H](CCCCN)C(=O)N[C@@H](Cc2ccc(O)cc2)C(=O)N1)C(=O)O [fish urotensin II] (H-AGTADCFWKYCV-OH; disulfide 6-11 (inferred); N-terminus and C-terminus assumed)

EC50 of calcium mobilization [4]: 0.1 to 0.2 nM
B2: Human urotensin II (peptide)
peptide: ETPDCFWKYCV
